Key:
Assay in all cases: relative viability (nuclei count vs DMSO), 5 days (fraction); higher = more cells survive
XMD13-2 + Vorinostat = compound: C1CC1C(=O)NC2=NNC3=C2C=CC(=C3)C4=CC(=CC=C4)C(=O)NC5CC5 [XMD13-2] + O=C(CCCCCCC(=O)Nc1ccccc1)NO [Vorinostat] (partner 1 µM)
Method in brief: (§1)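 Relative viability was taken as the ratio of nuclei in treated wells to nuclei in vehicle wells. Lung cancer cell lines in 1536-well plates received compounds by pin tool one day after seeding, either one drug alone or a fixed anchor-drug dose plus five library-drug doses (not always all listed) in √10 steps. Nuclei were counted on 4× images after 5 days of treatment, and values are medians of duplicate plates.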

XMD13-2 + Linsitinib = compound: C1CC1C(=O)NC2=NNC3=C2C=CC(=C3)C4=CC(=CC=C4)C(=O)NC5CC5 [XMD13-2] + C[C@]1(O)C[C@@H](c2nc(-c3ccc4ccc(-c5ccccc5)nc4c3)c3c(N)nccn32)C1 [Linsitinib] (partner 1 µM)
Method in brief: as §1

XMD13-2 + Tozasertib = compound: C1CC1C(=O)NC2=NNC3=C2C=CC(=C3)C4=CC(=CC=C4)C(=O)NC5CC5 [XMD13-2] + Cc1cc(Nc2cc(N3CCN(C)CC3)nc(Sc3ccc(NC(=O)C4CC4)cc3)n2)n[nH]1 [Tozasertib] (partner 0.1 µM)
Method in brief: as §1

Dasatinib + Navitoclax = compound: Cc1nc(Nc2ncc(C(=O)Nc3c(C)cccc3Cl)s2)cc(N2CCN(CCO)CC2)n1 [Dasatinib] + CC1(C)CCC(c2ccc(Cl)cc2)=C(CN2CCN(c3ccc(C(=O)NS(=O)(=O)c4ccc(N[C@H](CCN5CCOCC5)CSc5ccccc5)c(S(=O)(=O)C(F)(F)F)c4)cc3)CC2)C1 [Navitoclax] (partner 0.5 µM)
Method in brief: as §1

Cell Line | relative viability (XMD13-2 + Vorinostat; first compound 0.05 µM) | relative viability (XMD13-2 + Vorinostat; first compound 0.1581 µM) | relative viability (XMD13-2 + Vorinostat; first compound 0.5 µM) | relative viability (XMD13-2 + Vorinostat; first compound 1.581 µM) | relative viability (XMD13-2 + Vorinostat; first compound 5 µM) | relative viability (XMD13-2 + Linsitinib; first compound 0.05 µM) | relative viability (XMD13-2 + Linsitinib; first compound 0.1581 µM) | relative viability (XMD13-2 + Linsitinib; first compound 0.5 µM) | relative viability (XMD13-2 + Linsitinib; first compound 1.581 µM) | relative viability (XMD13-2 + Linsitinib; first compound 5 µM) | relative viability (XMD13-2 + Tozasertib; first compound 0.05 µM) | relative viability (XMD13-2 + Tozasertib; first compound 0.1581 µM) | relative viability (XMD13-2 + Tozasertib; first compound 0.5 µM) | relative viability (XMD13-2 + Tozasertib; first compound 1.581 µM) | relative viability (XMD13-2 + Tozasertib; first compound 5 µM) | relative viability (Dasatinib + Navitoclax; first compound 0.005 µM) | relative viability (Dasatinib + Navitoclax; first compound 0.01581 µM) | relative viability (Dasatinib + Navitoclax; first compound 0.05 µM) | relative viability (Dasatinib + Navitoclax; first compound 0.1581 µM) | relative viability (Dasatinib + Navitoclax; first compound 0.5 µM)
LC-2-ad | 0.721 | 0.703 | 0.717 | 0.696 | 0.722 | 0.927 | 0.924 | 0.826 | 0.769 | 0.831 | 0.519 | 0.528 | 0.436 | 0.41 | 0.45 | 0.553 | 0.418 | 0.341 | 0.13 | 0.1
NCI-H596 | 0.726 | 0.612 | 0.582 | 0.61 | 1.02 | 1.12 | 1.13 | 1.01 | 1.05 | 1.22 | 0.901 | 0.942 | 0.816 | 0.89 | 1.03 | 0.818 | 0.707 | 0.726 | 0.253 | 0.187
NCI-H1437 | 0.879 | 0.815 | 0.756 | 0.793 | 0.786 | 1.25 | 1.09 | 1.08 | 1.04 | 1.06 | 0.427 | 0.438 | 0.411 | 0.395 | 0.404 | 1.09 | 1.05 | 1.09 | 0.999 | 0.432
NCI-H727 | 1.23 | 1.09 | 1.41 | 1.33 | 1.22 | 0.219 | 0.25 | 0.439 | 0.312 | 0.25 | 0.577 | 0.652 | 0.666 | 0.617 | 0.627 | 0.404 | 0.266 | 0.186 | 0.139 | 0.143
PC-3 [JPC-3] | 0.804 | 0.857 | 0.916 | – | 0.734 | 0.915 | 0.961 | 1.01 | 0.906 | 1.01 | 0.887 | 0.911 | 0.902 | 0.908 | 0.874 | 0.785 | 0.818 | 0.951 | 0.788 | 0.456
SW 1573 | 0.786 | 0.625 | 0.853 | 0.844 | 0.385 | 0.82 | 0.745 | 0.849 | 0.71 | 0.577 | 0.196 | 0.167 | 0.155 | 0.145 | 0.354 | 0.906 | 0.899 | 0.946 | 0.473 | 0.481
NCI-H1650 | 0.661 | 0.584 | 0.576 | 0.594 | 0.555 | – | – | – | – | – | 0.439 | 0.36 | 0.471 | 0.381 | 0.588 | 1.26 | 0.934 | 0.83 | 0.506 | 0.387
NCI-H358 | 0.751 | 0.687 | 0.692 | 0.489 | 0.442 | 0.759 | 0.764 | 0.826 | 0.663 | 0.449 | 0.126 | 0.121 | 0.102 | 0.114 | 0.0991 | – | – | – | – | –
NCI-H1792 | – | – | – | – | – | 0.631 | 0.519 | 0.586 | 0.661 | 0.515 | – | – | – | – | – | 0.627 | 0.606 | 0.541 | 0.402 | 0.296
NCI-H650 | 0.526 | 0.416 | 0.46 | 0.348 | 0.497 | 0.983 | 0.857 | 0.899 | 0.718 | 0.865 | 0.783 | 0.748 | 0.781 | 0.716 | 0.723 | – | – | – | – | –
Calu-6 | – | – | – | – | – | 0.949 | 0.996 | – | 0.912 | 0.913 | – | – | – | – | – | 0.762 | 0.759 | 0.646 | 0.571 | 0.589
LCLC-103H | 0.891 | 0.83 | 0.817 | 0.696 | 0.751 | 1 | 1.1 | 1.25 | 1.18 | 1.14 | 0.542 | 0.326 | 0.492 | 0.545 | 0.416 | – | – | – | – | –
NCI-H1623 | – | – | – | – | – | – | – | – | – | – | 0.5 | 0.456 | 0.437 | 0.42 | 0.483 | – | – | – | – | –
NCI-H1299 | – | – | – | – | – | 0.982 | 1.03 | 1.15 | 0.997 | 1.03 | – | – | – | – | – | 1.04 | 1.05 | 1.1 | 0.6 | 0.31
ChaGo-K-1 | 0.789 | 0.635 | 0.837 | 0.7 | 0.716 | – | – | – | – | – | 0.234 | 0.214 | 0.254 | 0.222 | 0.258 | 0.618 | 1.08 | 0.965 | 0.909 | 0.923
NCI-H1703 | – | – | – | – | – | 0.637 | 1.23 | 0.805 | – | 0.74 | – | – | – | – | – | 0.567 | 0.38 | 0.238 | 0.17 | 0.146
NCI-H522 | 0.856 | 0.873 | 0.805 | 0.982 | 0.907 | – | – | – | – | – | 0.531 | 0.651 | 0.593 | 0.483 | 0.412 | – | – | – | – | –
ABC-1 | 1.3 | 0.979 | 1.03 | – | 0.774 | 0.918 | 0.874 | 1.04 | 0.704 | 0.86 | 0.187 | 0.2 | 0.163 | 0.213 | 0.205 | – | – | – | – | –
IA-LM | 0.954 | 1.05 | 0.96 | – | 0.718 | 0.627 | 0.56 | 0.582 | 0.683 | 0.713 | – | – | – | – | – | 0.878 | 0.923 | 1.04 | 0.876 | 0.665
SW 900 | 0.721 | 0.42 | 0.501 | 0.45 | 0.623 | – | – | – | – | – | 0.62 | 0.573 | 0.506 | 0.473 | 0.533 | – | – | – | – | –
NCI-H1563 | – | – | – | – | – | 1.22 | 1.27 | 1.16 | 1.12 | 1.31 | – | – | – | – | – | – | – | – | – | –
NCI-H2342 | 0.741 | 0.736 | 0.831 | 0.687 | 0.773 | – | – | – | – | – | 0.547 | 0.421 | 0.525 | 0.603 | 0.575 | – | – | – | – | –
